# Results as given in the OPERA property sets (Mansouri et al. 2018).
# Details: 25 °C
row,SMILES,solubility
1,CCOC(=O)CCCC(=O)OCC,46.8 mM
2,CCS,166 mM
3,CCC(C)OC (stereo unspecified),186 mM
4,CCCC(C)(C)CO,33.1 mM
5,ICCI,0.606 mM
6,Sc1ccccc1,7.58 mM
7,Brc1cc(Br)cc(Br)c1,0.00251 mM

# Results, then the compound that gave them:
row,solubility,SMILES
1,0.0646 mM,CC(C)c1ccccc1Br
2,0.214 mM,CCc1ccccc1Br
3,1230 mM,CC1CCOC1 (stereo unspecified)
4,0.643 mM,Cc1ccc(Br)cc1
5,79.4 mM,C=COC1CC1
6,427 mM,CC(C)[C@@H](C)CO
7,0.316 mM,Brc1ccccc1Br
8,235 mM,CC(C)OC=O
9,4.9e-05 mM,Cc1c2ccccc2cc2c1cc(F)c1ccccc12
